# Source: BindingDB's records for PubMed 31434879 (University of California Irvine (UCI))
# Assays:
# [1] = Inhibition of FLT3-ITD (unknown origin) expressed in mouse BaF3 cells assessed as inhibition of FLT3-ITD dependent cell proliferation incubated for 3 days by ATPlite 1step Luminescence Assay reagent based assay
# [2] = Inhibition of FLT3 (unknown origin) expressed in mouse BaF3 cells assessed as inhibition of FLT3 ligand-FLT3 dependent cell proliferation incubated for 3 days by ATPlite 1step Luminescence Assay reagent based assay
smiles,measurement,setting,value
"COc1ncc(F)cc1CNc1ccc(Cc2c[nH]c3ncc(C)cc23)c(F)n1 [US9096593, P-2049]",IC50,[1],> 10 µM
same,IC50,[2],> 10 µM
